Reference: US7888523B2, “Preparation of platinum(II) complexes” (Platco Technologies (Proprietary) Limited, priority 2004, dated 2011)

Experiments:
colon cancer cells = assay: Anticancer testing, inhibition of colon cancer cells; format: cell-based; conditions: for inhibition on colon cells: medium containing 10 mM glutathione
Protocol: (§1) Anticancer testing on the halogenoplatinum(II) complex of Example 8 was performed and compared with cisplatin. […] The corresponding values for cisplatin are 85.6% and 93.2%. The corresponding data on cervical cancer cells are 88.5 and 95.9% at 10 and 100 μM solutions. The corresponding values for cisplatin are 85.4 and 95% respectively. A further study in which 100 μM solutions were used in a medium containing 10 mM glutathione, the halogenoplatinum(II) complex performed even better, viz.

breast cancer cells = assay: Anticancer testing, inhibition of breast cancer cells; format: cell-based; conditions: 100 μM solution, medium containing 10 mM glutathione
Protocol: as §1

cervical cancer cells = assay: Anticancer testing, inhibition of cervical cancer cells; format: cell-based; conditions: for inhibition on cervical cancer cells: medium containing 10 mM glutathione
Protocol: as §1

[1] = Anti-cancer properties (test not specified); conditions: statement in words, no test details

| Structure (SMILES) | percentage inhibition on colon cancer cells (colon cancer cells; 10 μM solution) | percentage inhibition on colon cancer cells (colon cancer cells; 100 μM solution) | inhibition on colon cells (colon cancer cells; 100 μM solution) | inhibition on breast cancer cells (breast cancer cells) | percentage inhibition on cervical cancer cells (cervical cancer cells; 100 μM solution) | inhibition on cervical cancer cells (cervical cancer cells; 100 μM solution) | percentage inhibition on cervical cancer cells (cervical cancer cells; 10 μM solution) | anti-cancer properties [1] |
| --- | --- | --- | --- | --- | --- | --- | --- | --- |
| N.N.[Cl][Pt][Cl] [cisplatin, reference compound] | 85.6% | 93.2% | 48.0% | 14% | 95% | 58.6% | – | – |
| CSCc1nccn1C.[Cl][Pt][Cl] [Pt(mmtei)Cl2, bis-chloro-(1-methyl-2-methylthiomethyl-imidazole)platinum(II)] | 92.8% | 97.0% | 98.2% | 66.1% | 95.9% | 99.3% | 88.5% | exceptional anti-cancer properties |
